Measured values reported in ChEMBL document CHEMBL5247659, “Design, Structure-Activity Relationships, and In Vivo Evaluation of Potent and Brain-Penetrant Imidazo[1,2-b]pyridazines as Glycogen Synthase Kinase-3β (GSK-3β) Inhibitors” (J Med Chem, 2023).
In brackets after ≈: the same amount, converted by molar mass.

Legend:
[1] = Inhibition of N-terminal 6-His tagged human recombinant GSK3-beta H355L mutant using FL-KRREILSRRP[ps]ERYR-NH2 as substrate incubated for 20 hrs
[2] = target: Glycogen synthase kinase-3 alpha (Homo sapiens, UniProt P49840); assay: Inhibition of full length GST-tagged human recombinant GSK3-alpha using FL-KRREILSRRP[ps]ERYR-NH2 as substrate incubated for 20 hrs
[3] = target: Cyclin-dependent kinase 2 (Homo sapiens, UniProt P24941); assay: Inhibition of CDK2 (unknown origin)
[4] = target: Cyclin-dependent kinase 5 (Homo sapiens, UniProt Q00535); assay: Inhibition of CDK5 (unknown origin)
[5] = target: AP2-associated protein kinase 1 (Homo sapiens, UniProt Q2M2I8); assay: Inhibition of AAK1 (unknown origin)
[6] = target: Serine/threonine-protein kinase pim-1 (Homo sapiens, UniProt P11309); assay: Inhibition of PIM1 (unknown origin)
[7] = target: Protein kinase C theta type (Homo sapiens, UniProt Q04759); assay: Inhibition of PKCtheta (unknown origin)
[8] = Metabolic stability in human liver microsomes assessed as parent compound remaining at 0.5 uM incubated for 10 mins by LC-MS/MS analysis; type: ADME, Microsome; details: read-out: Stability
[9] = Metabolic stability in mouse liver microsomes assessed as parent compound remaining at 0.5 uM incubated for 10 mins by LC-MS/MS analysis; type: ADME, Microsome; details: read-out: Stability
[10] = Plasma protein binding in mouse assessed as unbound fraction at 10 uM measured for 5 hrs by equilibrium dialysis based LC-MS/MS analysis; type: ADME, cell-free
[11] = Plasma protein binding in human assessed as unbound fraction at 10 uM measured for 5 hrs by equilibrium dialysis based LC-MS/MS analysis; type: ADME, cell-free
[12] = Permeability of compound at pH 5.5 incubated for 4 hrs by PAMPA assay; type: ADME; details: read-out: permeability
[13] = Permeability of compound at pH 7.4 incubated for 4 hrs by PAMPA assay; type: ADME; details: read-out: permeability
[14] = Permeability across apical to basolateral side in human Caco-2 cells at 3 uM incubated for 2 hrs by LC-MS/MS analysis; type: ADME, cell-based; details: read-out: permeability
[15] = Permeability across basolateral to apical side in human Caco-2 cells at 3 uM incubated for 2 hrs by LC-MS/MS analysis; type: ADME, cell-based; details: read-out: permeability
[16] = Solubility of compound in fasted state simulated intestinal fluid of pH 6.5 at 1 mg/ml measured after 18 to 24 hrs by HPLC-UV based analysis; type: ADME; details: time 18-24 hrs
[17] = Solubility of compound in fed state simulated intestinal fluid of pH 5 at 1 mg/ml measured after 18 to 24 hrs by HPLC-UV based analysis; type: ADME; details: time 18-24 hrs
[18] = Clearance in 8 hr fasted C57BL6 mouse at 2 mg/kg, iv; type: ADME, organism-based; details: in vivo
[19] = Volume of distribution at steady state in 8 hr fasted C57BL6 mouse at 2 mg/kg, iv; type: ADME, organism-based; details: in vivo, read-out: Vdss
[20] = MRT in 8 hr fasted C57BL6 mouse at 2 mg/kg, iv; type: ADME, organism-based; details: in vivo
[21] = Half life in 8 hr fasted C57BL6 mouse at 2 mg/kg, iv; type: ADME, organism-based; details: in vivo
[22] = AUC tot in 8 hr fasted C57BL6 mouse at 10 mg/kg, po; type: ADME, organism-based; design: dose 10 mg/kg, route po; details: in vivo
[23] = Cmax in 8 hr fasted C57BL6 mouse at 10 mg/kg, po; type: ADME, organism-based; design: dose 10 mg/kg, route po; details: in vivo
[24] = Oral bioavailability in 8 hr fasted C57BL6 mouse at 10 mg/kg; type: ADME, organism-based; details: in vivo
Mus musculus = assay: Antialzheimer activity against triple transgenic C57BL6 mouse model assessed as reduction in tau phosphorylation at S396 at 30 mg/kg, po measured 5 hrs post dose by ELISA relative to control; type: functional; design: scale not given: the % may be the effect or the level left
[25] = Drug exposure in triple transgenic C57BL6 alzheimer disease mouse plasma at 30 mg/kg, po measured after 5 hrs; type: ADME, organism-based
[26] = Drug exposure in triple transgenic C57BL6 alzheimer disease mouse brain at 30 mg/kg, po measured after 5 hrs; type: ADME, organism-based; details: read-out: Ct
[27] = Ratio of drug level in brain to plasma of triple transgenic C57BL6 alzheimer disease mouse at 30 mg/kg, po measured after 5 hrs; type: ADME, organism-based; details: read-out: BPR
[28] = Unbound brain-to-plasma concentration ratio in triple transgenic C57BL6 alzheimer disease mouse model at 30 mg/kg, po measured after 5 hrs; type: ADME, organism-based; details: read-out: K(p,uu,brain)
[29] = Unbound fraction in triple transgenic C57BL6 alzheimer disease model mouse brain homogenate at 30 mg/kg, po measured after 5 hrs; type: ADME, organism-based
[30] = target: Interleukin-1 receptor-associated kinase 1 (Homo sapiens, UniProt P51617); assay: Inhibition of IRAK1 (unknown origin)
[31] = target: Interleukin-1 receptor-associated kinase 4 (Homo sapiens, UniProt Q9NWZ3); assay: Inhibition of IRAK4 (unknown origin)
Aurora kinase B = Aurora kinase B (Homo sapiens, UniProt Q96GD4); assay: Inhibition of Aurora B (unknown origin)
[32] = target: Cytoplasmic tyrosine-protein kinase BMX (Homo sapiens, UniProt P51813); assay: Inhibition of BMX (unknown origin)
[33] = target: Tyrosine-protein kinase BTK (Homo sapiens, UniProt Q06187); assay: Inhibition of BTK (unknown origin)
[34] = target: Casein kinase II subunit alpha (Homo sapiens, UniProt P68400); assay: Inhibition of CK2A1 (unknown origin)
[35] = target: Casein kinase II subunit alpha' (Homo sapiens, UniProt P19784); assay: Inhibition of CK2A2 (unknown origin)
[36] = target: Tyrosine-protein kinase ITK/TSK (Homo sapiens, UniProt Q08881); assay: Inhibition of ITK (unknown origin)
[37] = target: Tyrosine-protein kinase JAK1 (Homo sapiens, UniProt P23458); assay: Inhibition of JAK1 (unknown origin)
[38] = target: Tyrosine-protein kinase JAK2 (Homo sapiens, UniProt O60674); assay: Inhibition of JAK2 (unknown origin)
[39] = target: Tyrosine-protein kinase Lck (Homo sapiens, UniProt P06239); assay: Inhibition of LCK (unknown origin)
[40] = target: Tyrosine-protein kinase Lyn (Homo sapiens, UniProt P07948); assay: Inhibition of LynA (unknown origin)
[41] = target: Mitogen-activated protein kinase 14 (Homo sapiens, UniProt Q16539); assay: Inhibition of p38alpha (unknown origin)
[42] = target: Tyrosine-protein kinase SYK (Homo sapiens, UniProt P43405); assay: Inhibition of SYK (unknown origin)
[43] = target: Tyrosine-protein kinase TXK (Homo sapiens, UniProt P42681); assay: Inhibition of TXK (unknown origin)
[44] = target: Non-receptor tyrosine-protein kinase TYK2 (Homo sapiens, UniProt P29597); assay: Inhibition of TYK2 (unknown origin)
[45] = target: Mast/stem cell growth factor receptor Kit (Homo sapiens, UniProt P10721); assay: Inhibition of cKIT (unknown origin)
[46] = target: Insulin-like growth factor 1 receptor (Homo sapiens, UniProt P08069); assay: Inhibition of IGF1R (unknown origin)
Aurora kinase A = Aurora kinase A (Mus musculus, UniProt P97477); assay: Inhibition of mouse AURA
[47] = target: MAP kinase-activated protein kinase 2 (Homo sapiens, UniProt P49137); assay: Inhibition of MK2 (unknown origin)
[48] = target: Platelet-derived growth factor receptor beta (Homo sapiens, UniProt P09619); assay: Inhibition of PDGFRbeta (unknown origin)
[49] = target: Ribosomal protein S6 kinase alpha-1 (Homo sapiens, UniProt Q15418); assay: Inhibition of RSK1 (unknown origin)
[50] = Aqueous solubility of compound in potassium phosphate buffer at pH 1 at 1 mg/ml measured after 18 to 24 hrs by HPLC-UV based analysis; type: physicochemical; details: time 18-24 hrs
[51] = Aqueous solubility of compound in potassium phosphate buffer at pH 7.4 at 1 mg/ml measured after 18 to 24 hrs by HPLC-UV based analysis; type: physicochemical; details: time 18-24 hrs
P-glycoprotein (ABCB1) = P-glycoprotein (ABCB1) (Homo sapiens, UniProt P08183); assay: Substrate activity at P-glycoprotein in human Caco-2 cells assessed as efflux ratio of permeability across basolateral to apical side over apical to basolateral side at 3 uM incubated for 2 hrs by LC-MS/MS analysis; type: ADME, cell-based
[52] = Inhibition of tau 4R1N phosphorylation (unknown origin) at S396 residue transfected in human U2OS cells coexpressing GFP-tagged beta catenin incubated overnight by high content imaging assay

Chain of Cyclin-dependent kinase 5 (Q00535 whole entry): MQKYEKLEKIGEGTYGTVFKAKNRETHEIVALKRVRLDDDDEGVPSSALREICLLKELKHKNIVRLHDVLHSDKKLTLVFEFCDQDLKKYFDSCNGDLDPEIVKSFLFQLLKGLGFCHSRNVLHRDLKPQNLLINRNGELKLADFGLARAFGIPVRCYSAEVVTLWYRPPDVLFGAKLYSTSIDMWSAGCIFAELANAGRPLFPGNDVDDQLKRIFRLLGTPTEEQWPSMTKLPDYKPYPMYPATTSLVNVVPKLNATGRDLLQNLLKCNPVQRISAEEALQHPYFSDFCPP
Chain of Tyrosine-protein kinase JAK1 (P23458 whole entry): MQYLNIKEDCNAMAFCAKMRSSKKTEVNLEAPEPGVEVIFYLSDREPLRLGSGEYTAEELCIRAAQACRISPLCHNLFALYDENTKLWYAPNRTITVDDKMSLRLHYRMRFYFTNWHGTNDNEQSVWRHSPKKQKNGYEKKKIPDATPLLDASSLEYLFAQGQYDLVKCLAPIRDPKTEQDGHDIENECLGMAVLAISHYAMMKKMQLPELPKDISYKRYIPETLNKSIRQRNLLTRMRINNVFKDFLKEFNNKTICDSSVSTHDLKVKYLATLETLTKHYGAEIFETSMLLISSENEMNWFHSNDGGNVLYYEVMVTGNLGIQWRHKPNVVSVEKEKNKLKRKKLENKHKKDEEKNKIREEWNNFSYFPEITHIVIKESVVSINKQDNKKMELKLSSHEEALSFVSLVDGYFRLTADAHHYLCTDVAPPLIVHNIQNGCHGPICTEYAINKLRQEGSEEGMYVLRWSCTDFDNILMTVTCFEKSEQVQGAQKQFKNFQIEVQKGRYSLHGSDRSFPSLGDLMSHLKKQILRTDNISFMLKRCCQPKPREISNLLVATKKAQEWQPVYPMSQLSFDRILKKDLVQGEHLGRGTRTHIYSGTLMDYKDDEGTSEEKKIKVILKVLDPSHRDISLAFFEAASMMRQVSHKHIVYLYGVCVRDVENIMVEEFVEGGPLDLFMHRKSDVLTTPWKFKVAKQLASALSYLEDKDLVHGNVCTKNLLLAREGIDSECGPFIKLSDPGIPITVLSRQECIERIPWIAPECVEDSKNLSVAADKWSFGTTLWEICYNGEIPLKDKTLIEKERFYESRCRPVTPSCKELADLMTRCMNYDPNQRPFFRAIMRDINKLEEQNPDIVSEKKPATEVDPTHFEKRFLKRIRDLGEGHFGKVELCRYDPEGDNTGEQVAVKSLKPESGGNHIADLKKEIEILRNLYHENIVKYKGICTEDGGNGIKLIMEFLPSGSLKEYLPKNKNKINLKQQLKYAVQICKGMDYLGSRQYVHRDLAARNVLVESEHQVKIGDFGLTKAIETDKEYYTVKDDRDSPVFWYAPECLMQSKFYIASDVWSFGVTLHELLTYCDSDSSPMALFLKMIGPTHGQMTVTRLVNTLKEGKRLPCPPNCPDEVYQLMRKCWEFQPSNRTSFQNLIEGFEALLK
Chain of Protein kinase C theta type (Q04759 whole entry): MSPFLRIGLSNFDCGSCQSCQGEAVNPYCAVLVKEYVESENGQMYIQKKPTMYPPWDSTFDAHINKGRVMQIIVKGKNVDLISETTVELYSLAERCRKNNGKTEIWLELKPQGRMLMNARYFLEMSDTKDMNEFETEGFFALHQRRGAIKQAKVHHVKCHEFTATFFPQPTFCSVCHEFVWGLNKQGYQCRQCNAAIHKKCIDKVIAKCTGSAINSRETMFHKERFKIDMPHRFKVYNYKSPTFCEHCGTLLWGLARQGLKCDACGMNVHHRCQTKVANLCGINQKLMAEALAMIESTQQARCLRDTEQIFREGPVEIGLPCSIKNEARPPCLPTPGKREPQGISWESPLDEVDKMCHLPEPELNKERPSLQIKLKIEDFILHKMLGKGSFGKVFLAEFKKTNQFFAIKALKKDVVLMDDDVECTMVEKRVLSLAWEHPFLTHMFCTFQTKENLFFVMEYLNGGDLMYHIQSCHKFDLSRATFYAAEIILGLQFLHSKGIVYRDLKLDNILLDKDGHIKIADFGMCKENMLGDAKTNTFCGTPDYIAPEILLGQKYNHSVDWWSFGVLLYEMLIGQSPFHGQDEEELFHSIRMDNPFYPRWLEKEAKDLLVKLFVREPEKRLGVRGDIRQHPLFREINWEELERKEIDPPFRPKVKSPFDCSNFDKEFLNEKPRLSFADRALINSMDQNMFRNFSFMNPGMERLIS
Chain of Casein kinase II subunit alpha' (P19784 whole entry): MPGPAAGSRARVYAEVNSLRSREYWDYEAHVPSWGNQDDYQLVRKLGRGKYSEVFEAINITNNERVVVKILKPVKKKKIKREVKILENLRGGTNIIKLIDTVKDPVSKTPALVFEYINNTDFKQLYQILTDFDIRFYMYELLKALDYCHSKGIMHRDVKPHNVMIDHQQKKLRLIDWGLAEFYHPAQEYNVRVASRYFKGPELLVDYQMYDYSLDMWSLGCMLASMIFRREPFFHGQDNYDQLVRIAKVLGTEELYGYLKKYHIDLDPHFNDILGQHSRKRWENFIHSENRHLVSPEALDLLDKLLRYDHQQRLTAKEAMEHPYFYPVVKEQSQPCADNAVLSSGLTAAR
Chain of Serine/threonine-protein kinase pim-1 (P11309 whole entry): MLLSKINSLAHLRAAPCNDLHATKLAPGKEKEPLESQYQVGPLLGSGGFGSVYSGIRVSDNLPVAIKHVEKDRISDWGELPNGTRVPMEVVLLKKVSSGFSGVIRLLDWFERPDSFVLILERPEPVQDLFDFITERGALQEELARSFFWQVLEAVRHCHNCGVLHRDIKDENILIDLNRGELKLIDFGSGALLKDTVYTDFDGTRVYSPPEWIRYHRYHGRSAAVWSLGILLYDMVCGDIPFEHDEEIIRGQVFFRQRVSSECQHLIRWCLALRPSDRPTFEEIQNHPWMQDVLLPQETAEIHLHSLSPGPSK
Chain of Tyrosine-protein kinase Lyn (P07948 whole entry): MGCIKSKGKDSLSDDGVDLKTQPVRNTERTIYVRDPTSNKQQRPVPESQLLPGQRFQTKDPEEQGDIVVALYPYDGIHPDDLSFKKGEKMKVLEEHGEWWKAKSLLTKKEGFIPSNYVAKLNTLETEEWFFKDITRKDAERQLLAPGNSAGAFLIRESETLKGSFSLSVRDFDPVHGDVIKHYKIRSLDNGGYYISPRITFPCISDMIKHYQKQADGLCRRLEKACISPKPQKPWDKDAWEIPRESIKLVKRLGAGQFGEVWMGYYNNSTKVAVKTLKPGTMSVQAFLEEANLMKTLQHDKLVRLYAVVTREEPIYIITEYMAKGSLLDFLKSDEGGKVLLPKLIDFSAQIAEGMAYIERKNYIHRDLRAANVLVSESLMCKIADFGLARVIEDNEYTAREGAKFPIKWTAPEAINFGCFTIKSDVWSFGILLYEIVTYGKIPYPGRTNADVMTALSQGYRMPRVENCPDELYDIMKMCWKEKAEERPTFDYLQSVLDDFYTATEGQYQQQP
Chain of Mast/stem cell growth factor receptor Kit (P10721 whole entry): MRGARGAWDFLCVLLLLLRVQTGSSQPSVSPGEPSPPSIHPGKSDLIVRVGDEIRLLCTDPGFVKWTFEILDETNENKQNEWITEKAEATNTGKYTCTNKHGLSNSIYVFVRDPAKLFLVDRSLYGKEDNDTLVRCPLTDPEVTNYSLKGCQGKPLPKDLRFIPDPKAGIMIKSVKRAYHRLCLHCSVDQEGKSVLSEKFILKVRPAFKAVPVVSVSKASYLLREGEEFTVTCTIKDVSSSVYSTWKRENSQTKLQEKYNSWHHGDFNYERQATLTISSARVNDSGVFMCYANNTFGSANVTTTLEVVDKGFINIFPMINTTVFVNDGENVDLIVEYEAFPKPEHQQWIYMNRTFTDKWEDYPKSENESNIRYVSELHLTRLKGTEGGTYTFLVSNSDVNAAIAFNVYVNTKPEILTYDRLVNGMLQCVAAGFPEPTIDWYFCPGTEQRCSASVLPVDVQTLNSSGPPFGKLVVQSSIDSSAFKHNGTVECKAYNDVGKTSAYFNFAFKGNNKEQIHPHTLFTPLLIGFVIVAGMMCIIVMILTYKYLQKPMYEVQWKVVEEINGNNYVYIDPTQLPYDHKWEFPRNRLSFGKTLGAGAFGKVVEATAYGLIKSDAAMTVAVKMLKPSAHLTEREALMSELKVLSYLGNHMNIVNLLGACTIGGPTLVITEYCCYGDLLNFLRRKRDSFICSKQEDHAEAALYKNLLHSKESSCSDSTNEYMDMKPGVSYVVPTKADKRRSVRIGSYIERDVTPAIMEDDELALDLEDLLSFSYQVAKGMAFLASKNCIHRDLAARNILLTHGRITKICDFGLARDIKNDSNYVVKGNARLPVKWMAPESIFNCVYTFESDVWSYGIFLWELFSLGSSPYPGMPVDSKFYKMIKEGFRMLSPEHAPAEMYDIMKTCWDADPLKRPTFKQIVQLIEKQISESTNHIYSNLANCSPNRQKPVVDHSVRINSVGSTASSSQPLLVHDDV
Chain of Mitogen-activated protein kinase 14 (Q16539 whole entry): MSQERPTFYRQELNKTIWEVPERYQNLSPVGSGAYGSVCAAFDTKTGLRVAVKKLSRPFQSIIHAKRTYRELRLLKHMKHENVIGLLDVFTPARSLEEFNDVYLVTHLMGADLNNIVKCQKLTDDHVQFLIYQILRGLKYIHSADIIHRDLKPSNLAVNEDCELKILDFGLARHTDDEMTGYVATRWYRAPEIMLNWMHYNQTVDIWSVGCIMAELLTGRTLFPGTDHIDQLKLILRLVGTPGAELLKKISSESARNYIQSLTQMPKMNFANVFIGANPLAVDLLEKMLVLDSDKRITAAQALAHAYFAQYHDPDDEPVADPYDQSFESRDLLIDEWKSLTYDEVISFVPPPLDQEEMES
Chain of Aurora kinase B (Q96GD4 whole entry): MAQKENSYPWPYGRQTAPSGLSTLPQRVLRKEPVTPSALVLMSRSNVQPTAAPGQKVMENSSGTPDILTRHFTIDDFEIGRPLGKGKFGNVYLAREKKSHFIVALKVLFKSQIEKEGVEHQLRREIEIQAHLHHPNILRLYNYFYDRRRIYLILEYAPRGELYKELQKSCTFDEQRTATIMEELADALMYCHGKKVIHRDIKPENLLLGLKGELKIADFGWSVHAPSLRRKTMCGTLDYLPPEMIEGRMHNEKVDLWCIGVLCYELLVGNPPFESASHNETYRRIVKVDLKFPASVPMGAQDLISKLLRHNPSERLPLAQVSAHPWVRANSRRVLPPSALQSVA

`CC1CN(c2ccncc2NC(=O)c2ccnn3cc(-c4ccccc4)nc23)CCO1` (racemic) showed an IC50 [1] of 0.73 nM, an IC50 [2] of 0.35 nM and an IC50 [3] of 1400 nM. It also gave an IC50 [4] of 6400 nM, an IC50 [5] of 200 nM and an IC50 [6] of 380 nM. For the same compound, the IC50 [7] was 360 nM, the remaining at 10 min, 0.5 µM [8] was 17% and the remaining at 10 min, 0.5 µM [9] was 7%. The fraction unbound at 5 h, 10 µM [10] was 0.009, the fraction unbound at 5 h, 10 µM [11] was 0.008 and the Papp at 4 h [12] was 100 ×10⁻⁶ cm/s. The Papp at 4 h [13] was 80.6 ×10⁻⁶ cm/s, the Papp A→B at 2 h, 3 µM [14] was 13.8 ×10⁻⁶ cm/s and the Papp B→A at 2 h, 3 µM [15] was 7.1 ×10⁻⁶ cm/s. It also gave a solubility [16] of 21 µg/mL (≈ 50.7 µM), a solubility [17] of 788 µg/mL (≈ 1900 µM) and a clearance [18] of 3.8 mL/min/kg. The Vd [19] was 1.1 L/kg, the MRT [20] was 4.8 h and the half-life [21] was 5.2 h. For the same compound, the AUC [22] was 68.3 µM·h, the Cmax [23] was 7.8 µM and the bioavailability [24] was 64%. The Activity (Mus musculus) was 52%, the concentration at 5 h [25] was 3.8 µM and the concentration at 5 h [26] was 1.3 µM. It also gave a Kp at 5 h [27] of 0.34, a Kp uu at 5 h [28] of 0.34 and a fraction unbound at 5 h [29] of 0.009. It also gave an IC50 [30] of over 2000 nM, an IC50 [31] of over 2000 nM and an IC50 (Aurora kinase B) of over 2000 nM. It also gave an IC50 [32] of over 2000 nM, an IC50 [33] of over 2000 nM and an IC50 [34] of over 2000 nM. For the same compound, the IC50 [35] was over 2000 nM, the IC50 [36] was over 2000 nM and the IC50 [37] was over 2000 nM. It also gave an IC50 [38] of over 2000 nM, an IC50 [39] of over 2000 nM and an IC50 [40] of over 2000 nM. The IC50 [41] was over 2000 nM, the IC50 [42] was over 2000 nM and the IC50 [43] was over 2000 nM. The IC50 [44] was over 2000 nM, the IC50 [45] was over 50000 nM and the IC50 [46] was over 50000 nM. For the same compound, the IC50 (Aurora kinase A) was over 50000 nM, the IC50 [47] was over 50000 nM and the IC50 [48] was over 50000 nM. It also gave an IC50 [49] of over 50000 nM, a solubility [50] of 1220 µg/mL (≈ 2940 µM) and a solubility [51] of 14 µg/mL (≈ 33.8 µM). It also gave an efflux ratio at 2 h, 3 µM (P-glycoprotein (ABCB1)) of under 1 and an IC50 [52] of 58 nM.
